Assay results taken from US11414436B2, “Non-coordinating anion type activators containing cation having large alkyl groups” (ExxonMobil Chemical Patents Inc., priority 2018, dated 2022).
Where “and” joins values, the source holds several entries; their conditions need not be identical. Equal values may be shown once.

Key:
[1] = Propylene homopolymerization in parallel pressure reactor, MCN-1 with ammonium borate activators; conditions: for activity: isohexane
From the text: Polymerization in Parallel Pressure Reactor
Solvents, polymerization-grade toluene, and isohexane were supplied by ExxonMobil Chemical Company and purified by passing through a series of columns: two 500 cc Oxyclear cylinders in series from Labclear (Oakland, Calif.), followed by two 500 cc columns in series packed with dried 3 Å mole sieves (8-12 mesh; Aldrich Chemical Company), and two 500 cc columns in series packed with dried 5 Å mole sieves (8-12 mesh; Aldrich Chemical Company). 1-octene (C8) and 1-hexene (C6) (98%, Aldrich Chemical Company) were dried by stirring over NaK overnight followed by filtration through basic alumina (Aldrich Chemical Company, Brockman Basic 1).
(§1) Solutions of the metal complexes and activators were prepared in a drybox using toluene or methylcyclohexane. Concentrations were typically 0.2 mmol/L. Tri-n-octylaluminum (TNOAL, neat, AkzoNobel) was typically used as a scavenger. Concentration of the TNOAL solution in toluene ranged from 0.5 to 2.0 mmol/L.
(§2) Polymerizations were carried out in a parallel pressure reactor, as generally described in U.S. Pat. Nos. 6,306,658; 6,455,316; 6,489,168; WO 00/09255; and Murphy, V. et al. (2003) “A Fully Integrated High-Throughput Screening Methodology for the Discovery of New Polyolefin Catalysts: Discovery of a New Class of High Temperature Single-Site Group (IV) Copolymerization Catalysts,” J. Am. Chem. Soc., v. 125, pp. 4306-4317, each of which is fully incorporated herein by reference. […] Although the specific quantities, temperatures, solvents, reactants, reactant ratios, pressures, and other variables are frequently changed from one polymerization run to the next, the following describes a typical polymerization performed in a parallel pressure reactor.
Catalyst systems dissolved in solution were used in the polymerization examples below, unless specified otherwise.
RUN A: Propylene Homopolymerization (PP).
The reactor was prepared as described above and purged with propylene. For the examples in Table 2, the catalyst and activator solutions were prepared in toluene. […] Isohexane was then injected into each vessel at room temperature followed by a predetermined amount of propylene gas. The reactor was heated to the set temperature while stirring at 800 rpm, and the scavenger, activator and catalyst solutions were injected sequentially to each vessel. The polymerization was allowed to proceed as described previously.
A series of propylene polymerizations were performed in parallel pressure reactors (PPRs) developed by Symyx Technologies, Inc. In these polymerizations, the metallocene rac-dimethylsilyl-bis(indenyl)hafnium dimethyl (MCN-1) was used along with several different ammonium borate activators. Polymerizations were performed at 85° C. and 100° C.
Propylene homopolymerization (PP).
A series of propylene polymerizations were performed in the parallel pressure reactor similar to the procedure described above. In these studies rac-dimethylsilyl-bis(indenyl)hafnium dimethyl (MCN-1) was used along with ammonium borate activators.

[2] = Ethylene-octene copolymerization in parallel pressure reactor, non-metallocene catalyst CAT-1; conditions: catalyst CAT-1 20 nmol; activator 1.1 equiv; 100° C.; 135 psi; 1-octene 100 uL; TNOAL 0.5 umol
Method: as §1, §2
(§3) Ethylene-Octene Copolymerization (EO).
(§4) A pre-weighed glass vial insert and disposable stirring paddle were fitted to each reaction vessel of the reactor, which contains 48 individual reaction vessels. The reactor was then closed and purged with ethylene. Each vessel was charged with enough solvent (typically isohexane) to bring the total reaction volume, including the subsequent additions, to the desired volume, typically 5 mL. 1-octene, if required, was injected into the reaction vessel and the reactor was heated to the set temperature and pressurized to the predetermined pressure of ethylene, while stirring at 800 rpm. The aluminum compound (such as tri-n-octylaluminum) in toluene was then injected as scavenger followed by addition of the activator solution (typically 1.0-1.2 molar equivalents).
(§5) The catalyst (and activator solutions for Run A) were all prepared in toluene. The catalyst solution (typically 0.020-0.080 μmol of metal complex) was injected into the reaction vessel and the polymerization was allowed to proceed until a pre-determined amount of ethylene (quench value typically 20 psi) had been used up by the reaction. Alternatively, the reaction may be allowed to proceed for a set amount of time (maximum reaction time typically 30 minutes). Ethylene was added continuously (through the use of computer controlled solenoid valves) to the autoclaves during polymerization to maintain reactor gauge pressure (P setpt, +/−2 psig) and the reactor temperature (T) was monitored and typically maintained within +/−1° C. The reaction was quenched by pressurizing the vessel with compressed air. After the reactor was vented and cooled, the glass vial insert containing the polymer product and solvent was removed from the pressure cell and the inert atmosphere glove box, and the volatile components were removed using a Genevac HT-12 centrifuge and Genevac VC3000D vacuum evaporator operating at elevated temperature and reduced pressure. The vial was then weighed to determine the yield of the polymer product. The resultant polymer was analyzed by Rapid GPC (see below) to determine the molecular weight, by FT-IR (see below) to determine percent octene incorporation, and by DSC (see below) to determine melting point (Tm).
(§6) Equivalence is determined based on the mole equivalents relative to the moles of the transition metal in the catalyst complex.
(§7) Activators of the present disclosure can also be used for activating non-metallocene catalysts for polymerization of olefins. Table 4 illustrates copolymerization of ethylene and octene using activators of the present disclosure and non-metallocene catalysts (CAT-1, CAT-2, CAT-3, and CAT-4).

[3] = Ethylene-octene copolymerization in parallel pressure reactor, non-metallocene catalyst CAT-2; conditions: catalyst CAT-2 20 nmol; activator 1.1 equiv; 100° C.; 135 psi; 1-octene 100 uL; TNOAL 0.5 umol
Method: as §1, §2, §3, §4, §5, §6, §7

[4] = Ethylene-octene copolymerization in parallel pressure reactor, non-metallocene catalyst CAT-3; conditions: catalyst CAT-3 20 nmol; activator 1.1 equiv; 100° C.; 135 psi; 1-octene 100 uL; TNOAL 0.5 umol
Method: as §1, §2, §3, §4, §5, §6, §7

[5] = Ethylene-octene copolymerization in parallel pressure reactor, non-metallocene catalyst CAT-4; conditions: catalyst CAT-4 20 nmol; activator 1.1 equiv; 100° C.; 135 psi; 1-octene 100 uL; TNOAL 0.5 umol
Method: as §1, §2, §3, §4, §5, §6, §7

[6] = Solubility studies of the activators (saturated solution in isohexane or methylcyclohexane); format: physicochemical
Method: Solubility Studies of the Activators
Procedure for Solid Activators.
A saturated solution of each of the solid ammonium borate activators was prepared by stirring an excess of the activator with either isohexane or methylcyclohexane solvent for several hours at 25° C. The mixture was then filtered and a known volume of the filtrate was evaporated to dryness in a tared vial. The vial was then weighed to determine the mass of activator that was dissolved in the aliquot. The concentration of the saturated solution is presented in millimoles of activator per liter of solution (mM).
Procedure for Activators that Form Emulsions.
A saturated solution of the activator was prepared by slowly adding the solvent to a pre-weighed amount of the activator. The final volume was determined as the minimum amount of solvent required to convert the emulsion into a homogeneous solution. The concentration of the saturated solution is presented in millimoles of activator per liter of solution (mM). Alternatively, an emulsion of the activator was prepared by adding the solvent to an excess amount of activator. The resulting emulsion was separated from the undissolved solids by decanting the emulsion into a tared vial. Solvent was then added dropwise until the emulsion became homogeneous. The mass of the final solution was measured and then the solvent was evaporated to dryness to obtain the mass of the activator. The concentration of the saturated solution is presented in millimoles of activator per liter of solution (mM).

[7] = as above; format: physicochemical; conditions: methylcyclohexane
[8] = Ethylene-octene copolymerization (EO) in parallel pressure reactor, MCN-1 (Table 6); conditions: MCN-1 = 20 nmol, activator = 22 nmol, 1-octene 100 μL, 80° C., 75 PSI
Method: as §3, §4, §5
A series of ethylene-octene polymerizations were performed in the parallel pressure reactor according to a similar procedure as described above. In these studies rac-dimethylsilyl-bis(indenyl)hafnium dimethyl (MCN-1) was used along with ammonium borate activators.

[9] = Ethylene homopolymerization (PE) in parallel pressure reactor, MCN-1; conditions: MCN-1 = 20 nmol, activator = 22 nmol, 80° C., 75 PSI
Method: Ethylene homopolymerization (PE).
A series of ethylene polymerizations were performed in the parallel pressure reactor sinilar to the procedure described above. In these studies rac-dimethylsilyl- bis(indenyl)hafnium dimethyl (MCN-1) was used along with ammonium borate activators .

[10] = propylene, 100 °C, 150 psi, MCN-1 = 20 nmol, activator = 20 nmol, TNOAL 500 nmol

Compound | activity [1, 10] | activity [2] | activity [3] | activity [4] | activity [5] | activity [8] | activity [9] | further results
Di(hydrogenated tallow)methylamine-BF28 [M2HTH-BF28] | 49 kg/mmol/h and 60 kg/mmol/h and 96 kg/mmol/h | 2494 kg/mmol/h and 1709 kg/mmol/h | 620 kg/mmol/h and 352 kg/mmol/h | 825 kg/mmol/h and 863 kg/mmol/h | 48 kg/mmol/h and 65 kg/mmol/h |  |  | activity ([1]; Activator Equiv 1.0, TNOAL 0.25 umol, MCN-1 30 nmol, 85° C., propylene 135 psi): 187 kg/mmol/h and 167 kg/mmol/h and 160 kg/mmol/h; activity ([1]; Activator Equiv 1.0, TNOAL 0.50 umol, MCN-1 30 nmol, 85° C., propylene 135 psi): 151 kg/mmol/h and 113 kg/mmol/h and 118 kg/mmol/h; activity ([1]; Activator Equiv 1.0, TNOAL 0.75 umol, MCN-1 30 nmol, 85° C., propylene 135 psi): 102 kg/mmol/h and 95 kg/mmol/h; activity ([1]; Activator Equiv 1.2, TNOAL 0.25 umol, MCN-1 30 nmol, 85° C., propylene 135 psi): 203 kg/mmol/h and 195 kg/mmol/h and 166 kg/mmol/h; activity ([1]; Activator Equiv 1.2, TNOAL 0.50 umol, MCN-1 30 nmol, 85° C., propylene 135 psi): 169 kg/mmol/h and 153 kg/mmol/h; activity ([1]; Activator Equiv 1.2, TNOAL 0.75 umol, MCN-1 30 nmol, 85° C., propylene 135 psi): 119 kg/mmol/h and 104 kg/mmol/h; activity ([1]; Activator Equiv 1.4, TNOAL 0.25 umol, MCN-1 30 nmol, 85° C., propylene 135 psi): 204 kg/mmol/h and 196 kg/mmol/h and 178 kg/mmol/h; activity ([1]; Activator Equiv 1.4, TNOAL 0.50 umol, MCN-1 30 nmol, 85° C., propylene 135 psi): 157 kg/mmol/h and 142 kg/mmol/h; activity ([1]; Activator Equiv 1.4, TNOAL 0.75 umol, MCN-1 30 nmol, 85° C., propylene 135 psi): 127 kg/mmol/h and 103 kg/mmol/h; activity ([1]; Activator Equiv 1.6, TNOAL 0.25 umol, MCN-1 30 nmol, 85° C., propylene 135 psi): 229 kg/mmol/h and 203 kg/mmol/h and 180 kg/mmol/h; activity ([1]; Activator Equiv 1.6, TNOAL 0.50 umol, MCN-1 30 nmol, 85° C., propylene 135 psi): 168 kg/mmol/h and 144 kg/mmol/h; activity ([1]; Activator Equiv 1.6, TNOAL 0.75 umol, MCN-1 30 nmol, 85° C., propylene 135 psi): 129 kg/mmol/h and 117 kg/mmol/h; average catalyst activity, comparison of the four activators (FIG. 6) ([1]; MCN-1, polypropylene at 100° C., Table 7 runs): much lower activity; activity ([1]; propylene, 85 °C, 135 psi, MCN-1 = 20 nmol, activator = 20 nmol, TNOAL 500 nmol): 75 kg/mmol/h and 55 kg/mmol/h
Di(hydrogenated tallow)methylamine-BF20 [M2HTH-BF20] | 46 kg/mmol/h and 30 kg/mmol/h and 36 kg/mmol/h | 2030 kg/mmol/h and 2214 kg/mmol/h | 806 kg/mmol/h and 755 kg/mmol/h | 711 kg/mmol/h and 786 kg/mmol/h | 51 kg/mmol/h and 63 kg/mmol/h |  |  | 
CCCCCCCCCCCCCCCCCC[NH+](CCCCCCCCCCCCCCCCCC)c1ccc(C)cc1.Fc1c(F)c(F)c([B-](c2c(F)c(F)c(F)c(F)c2F)(c2c(F)c(F)c(F)c(F)c2F)c2c(F)c(F)c(F)c(F)c2F)c(F)c1F [DOdTH-BF20, 4-methyl-N,N-dioctadecylbenzenaminium-BF20] |  | 3716 kg/mmol/h and 3736 kg/mmol/h | 1267 kg/mmol/h and 1154 kg/mmol/h | 647 kg/mmol/h and 732 kg/mmol/h | 46 kg/mmol/h and 48 kg/mmol/h |  |  | Solubility limit in i-hexane (mM at 25° C.) ([6]; isohexane): 19 mM; Solubility limit in i-hexane (wt % at 25° C.) ([6]; isohexane): 3.7 wt %; Solubility limit in MeCy (mM at 25° C.) ([6]; methylcyclohexane): 110 mM; Solubility limit in MeCy (wt % at 25° C.) [7]: 19 wt %
CCCCCCCCCCCCCCCCCC[NH+](C)c1ccc(CCCCCCCCCCC)cc1.Fc1c(F)c(F)c2c(F)c([B-](c3c(F)c(F)c4c(F)c(F)c(F)c(F)c4c3F)(c3c(F)c(F)c4c(F)c(F)c(F)c(F)c4c3F)c3c(F)c(F)c4c(F)c(F)c(F)c(F)c4c3F)c(F)c(F)c2c1F [UOMAH-BF28, 4-Undecyl-N-methyl-N-octadecylanilinium-BF28] |  |  |  |  |  | 366.1 kg/mmol/h and 358.9 kg/mmol/h | 250.9 kg/mmol/h and 186.5 kg/mmol/h | 
N-methyl-4-nonadecyl-N-octadecylanilinium tetrakis(pentafluorophenyl)borate [NOMAH-BF20] |  |  |  |  |  | 430.9 kg/mmol/h and 414.1 kg/mmol/h and 478.7 kg/mmol/h and 409.6 kg/mmol/h | 215.4 kg/mmol/h and 237.5 kg/mmol/h and 399.2 kg/mmol/h and 340.1 kg/mmol/h | 
CCCCCCCCCCCCCCCCCC[NH+](C)c1ccc(CCCCCCCCCCC)cc1.Fc1c(F)c(F)c([B-](c2c(F)c(F)c(F)c(F)c2F)(c2c(F)c(F)c(F)c(F)c2F)c2c(F)c(F)c(F)c(F)c2F)c(F)c1F [UOMAH-BF20] |  |  |  |  |  | 502.3 kg/mmol/h and 455.9 kg/mmol/h and 521.4 kg/mmol/h and 421.0 kg/mmol/h | 332.5 kg/mmol/h and 317.6 kg/mmol/h and 310.3 kg/mmol/h and 400.0 kg/mmol/h | 
